Source: patent publication US20060069132A1, “Azolecarboxamide herbicides” (priority 2004, published 2006)

Assays:
[1] = test system: small flower umbrella sedge; test: Test B flooded paddy test; type: in vivo, Cyperus difformis; settings: 1000 g ai/ha, scale 0 to 100 (0 no effect, 100 complete control)
Summary of the method: (§1)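 Postemergence plants were sprayed with formulated test chemicals at 2 to 18 cm height (1- to 4-leaf stage); paddy species were grown to the 2-leaf stage. After 13 to 15 days in a greenhouse, injury was rated visually against untreated controls on a 0–100 scale (0 = no effect, 100 = complete control).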

blackgrass = test: Test B postemergence herbicide test; type: in vivo, Alopecurus myosuroides; settings: postemergence, visual rating, scale 0 (no effect) to 100 (complete control)
Summary of the method: as §1

velvetleaf = test: Test B pre-/postemergence herbicide test; type: in vivo, Abutilon theophrasti; settings: for Velvetleaf plant response rating: postemergence
Summary of the method: (§2)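 Herbicidal effect was judged by eye on a 0–100 scale after plants stood 13 to 15 days in the greenhouse following pre- or postemergence treatment with surfactant-containing formulations.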

rice [2] = test: Test B flooded paddy test; type: in vivo, Oryza sativa; settings: 1000 g ai/ha, scale 0 to 100 (0 no effect, 100 complete control)
Summary of the method: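 Treated at 2-leaf (paddy) or 1–4-leaf, 2–18 cm (postemergence); greenhouse 13–15 d; visual score vs control, 0 none to 100 complete control; dash = not tested.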

rice [3] = test: Test C flooded paddy test; type: in vivo, Oryza sativa
Summary of the method: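 Plants were grown to the 1- to 4-leaf stage (2–18 cm) and then treated postemergence, or grown to the 2-leaf stage for the flooded paddy test. They were held in a greenhouse for 12 to 14 days and then scored by eye against controls, where 0 is no effect and 100 is complete control.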

barnyardgrass [4] = test: Test C flooded paddy test; type: in vivo, Echinochloa crus-galli
Summary of the method: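 Ratings (0 = no effect, 100 = complete control) come from visual comparison with untreated plants after 12 to 14 days in the greenhouse. Treatment was postemergence at the 1- to 4-leaf stage (2–18 cm), or at the 2-leaf stage for the flooded paddy barnyardgrass.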

Surinam grass = test: Test B pre-/postemergence herbicide test; type: in vivo, Urochloa decumbens; settings: for Surinam Grass plant response rating: postemergence
Summary of the method: as §2

[5] = test system: smallflower umbrella sedge; test: Test C flooded paddy test; type: in vivo, Cyperus difformis
barnyardgrass [6] = test: Test B pre-/postemergence herbicide test; type: in vivo, Echinochloa crus-galli; settings: for Barnyardgrass plant response rating: postemergence, scale 0 (no effect) to 100 (complete control)
Summary of the method: (§3)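 Seeds were planted and treated preemergence with compounds formulated in a non-phytotoxic solvent mixture containing surfactant, while plants at the 1- to 4-leaf stage (2 to 18 cm) received postemergence sprays. Flooded paddy plants were grown to the 2-leaf stage. After 13 to 15 days in a greenhouse, injury was visually rated 0–100 against untreated controls.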

giant foxtail = test: Test B pre-/postemergence herbicide test; type: in vivo, Setaria faberi; settings: for Foxtail, Giant plant response rating: postemergence
Summary of the method: as §2

morningglory = test: Test B pre-/postemergence herbicide test; type: in vivo, Ipomoea coccinea; settings: for Morningglory plant response rating: postemergence
Summary of the method: as §3

large crabgrass = test: Test B pre-/postemergence herbicide test; type: in vivo, Digitaria sanguinalis; settings: for Crabgrass, Large plant response rating: postemergence
Summary of the method: as §2

rice [7] = test: Test B pre-/postemergence herbicide test; type: in vivo, Oryza sativa; settings: 0 = no effect, 100 = complete control, preemergence
Summary of the method: as §2

ducksalad [8] = test: Test C flooded paddy test; type: in vivo, Heteranthera limosa
lambsquarters = test: Test B pre-/postemergence herbicide test; type: in vivo, Chenopodium album; settings: for Lambsquarters plant response rating: postemergence
Summary of the method: as §2

wheat = test: Test B postemergence herbicide test; type: in vivo, Triticum aestivum; parameters: key to Wheat plant response rating: 0 = no effect, 100 = complete control; settings: postemergence
Summary of the method: (§4)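 Each value is a visual 0–100 response rating taken against controls 13 to 15 days after treatment in the greenhouse. Plants received formulated chemical postemergence at the 1- to 4-leaf stage or, in flooded paddy, at the 2-leaf stage.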

pigweed = test: Test B pre-/postemergence herbicide test; type: in vivo, Amaranthus retroflexus; settings: for Pigweed plant response rating: postemergence
Summary of the method: as §2

corn = test: Test B pre-/postemergence herbicide test; type: in vivo, Zea mays; settings: for Corn plant response rating: postemergence
Summary of the method: as §2

barnyardgrass [9] = test: Test B flooded paddy test; type: in vivo, Echinochloa crus-galli; settings: 1000 g ai/ha, scale 0 to 100 (0 no effect, 100 complete control)
Summary of the method: as §1

cocklebur = test: Test B pre-/postemergence herbicide test; type: in vivo, Xanthium strumarium; settings: postemergence, visual rating, scale 0 (no effect) to 100 (complete control)
Summary of the method: as §3

ducksalad [10] = test: Test B flooded paddy test; type: in vivo, Heteranthera limosa; settings: 1000 g ai/ha, scale 0 to 100 (0 no effect, 100 complete control)
Summary of the method: as §1

wild oat = test: Test B postemergence herbicide test; type: in vivo, Avena fatua; settings: postemergence
Summary of the method: as §4

[11] = 125 g ai/ha, 0 = no effect, 100 = complete control, preemergence
[12] = 500 g ai/ha, visual rating, 0 = no effect, 100 = complete control, preemergence
[13] = 125 g ai/ha, visual rating, scale 0 (no effect) to 100 (complete control)
[14] = 500 g ai/ha, scale 0 to 100, 0 is no effect, 100 is complete control
[15] = 125 g ai/ha, scale 0 to 100 (0 no effect, 100 complete control)
[16] = 250 g ai/ha, scale of 0 to 100, 0 is no effect, 100 is complete control
[17] = 500 g ai/ha, visual rating after 12 to 14 days, scale 0 to 100 (0 no effect, 100 complete control)

SMILES: CCN(C)C(=O)c1cncc(NC(=O)c2cc(C(C)(C)C)nn2CC)c1 [Compound 263]
- Sedge, Umbrella plant response rating [1]: 80
- Blackgrass plant response rating (blackgrass; 125 g ai/ha): 10
- Blackgrass plant response rating (blackgrass; 500 g ai/ha): 20
- Velvetleaf plant response rating (0 to 100 scale) (velvetleaf; [11]): 10
- Plant response rating, Velvetleaf (velvetleaf; [12]): 90
- Velvetleaf plant response rating (velvetleaf; [13]): 20
- Velvetleaf plant response rating (velvetleaf; [14]): 20
- Rice plant response rating (rice [2]): 70
- Rice plant response rating (rice [3]; 62 g ai/ha, scale 0 to 100): 0
- Rice plant response rating (rice [3]; [15]): 0
- Rice plant response rating (rice [3]; [16]): 0
- Plant response rating, Rice (rice [3]; [17]): 25
- Barnyardgrass plant response rating (barnyardgrass [4]; 62 g ai/ha, scale 0 to 100 (0 no effect, 100 complete control)): 0
- Barnyardgrass plant response rating (barnyardgrass [4]; [15]): 0
- Barnyardgrass plant response rating (barnyardgrass [4]; [16]): 0
- Plant response rating, Barnyardgrass (barnyardgrass [4]; [17]): 0
- Surinam Grass plant response rating (0 to 100 scale) (Surinam grass; [11]): 10
- Plant response rating, Surinam Grass (Surinam grass; [12]): 30
- Surinam Grass plant response rating (Surinam grass; [13]): 10
- Surinam Grass plant response rating (Surinam grass; [14]): 10
- Sedge, Umbrella plant response rating ([5]; 62 g ai/ha, scale 0 to 100): 0
- Sedge, Umbrella plant response rating [5, 15]: 0
- Sedge, Umbrella plant response rating [5, 16]: 30
- Plant response rating, Sedge, Umbrella [5, 17]: 50
- Barnyardgrass plant response rating (0 to 100 scale) (barnyardgrass [6]; [11]): 10
- Plant response rating, Barnyardgrass (barnyardgrass [6]; [12]): 40
- Barnyardgrass plant response rating (barnyardgrass [6]; 125 g ai/ha, visual rating): 0
- Barnyardgrass plant response rating (barnyardgrass [6]; 500 g ai/ha, visual rating): 10
- Foxtail, Giant plant response rating (0 to 100 scale) (giant foxtail; [11]): 0
- Plant response rating, Foxtail, Giant (giant foxtail; [12]): 20
- Foxtail, Giant plant response rating (giant foxtail; [13]): 0
- Foxtail, Giant plant response rating (giant foxtail; [14]): 20
- Morningglory plant response rating (0 to 100 scale) (morningglory; [11]): 0
- Plant response rating, Morningglory (morningglory; [12]): 0
- Morningglory plant response rating (morningglory; [13]): 0
- Morningglory plant response rating (morningglory; [14]): 20
- Crabgrass, Large plant response rating (0 to 100 scale) (large crabgrass; [11]): 10
- Plant response rating, Crabgrass, Large (large crabgrass; [12]): 60
- Crabgrass, Large plant response rating (large crabgrass; [13]): 10
- Crabgrass, Large plant response rating (large crabgrass; [14]): 20
- Rice plant response rating (0 to 100 scale) (rice [7]; 125 g ai/ha): 0
- Plant response rating, Rice (rice [7]; 500 g ai/ha, visual rating): 10
- Ducksalad plant response rating (ducksalad [8]; 62 g ai/ha, scale 0 to 100): 0
- Ducksalad plant response rating (ducksalad [8]; [15]): 0
- Ducksalad plant response rating (ducksalad [8]; [16]): 75
- Plant response rating, Ducksalad (ducksalad [8]; [17]): 90
- Lambsquarters plant response rating (0 to 100 scale) (lambsquarters; [11]): 70
- Plant response rating, Lambsquarters (lambsquarters; [12]): 100
- Lambsquarters plant response rating (lambsquarters; [13]): 70
- Lambsquarters plant response rating (lambsquarters; [14]): 80
- Wheat plant response rating (wheat; [13]): 10
- Wheat plant response rating (wheat; [14]): 20
- Pigweed plant response rating (0 to 100 scale) (pigweed; [11]): 80
- Plant response rating, Pigweed (pigweed; [12]): 100
- Pigweed plant response rating (pigweed; [13]): 60
- Pigweed plant response rating (pigweed; [14]): 90
- Corn plant response rating (0 to 100 scale) (corn; [11]): 0
- Plant response rating, Corn (corn; [12]): 0
- Corn plant response rating (corn; [13]): 0
- Corn plant response rating (corn; [14]): 10
- Barnyardgrass plant response rating (barnyardgrass [9]): 60
- Cocklebur plant response rating (cocklebur; 125 g ai/ha): 0
- Cocklebur plant response rating (cocklebur; 500 g ai/ha): 10
- Ducksalad plant response rating (ducksalad [10]): 90
- Oat, Wild plant response rating (wild oat; [13]): 10
- Oat, Wild plant response rating (wild oat; [14]): 20
